Read-outs that look alike come from different tables or passages of the source.
How the values were obtained:
[1] = Phase 1/2 clinical study: pharmacokinetics in cancer patients; format: in vivo, human; details: for concentration at 8 h / concentration at 24 h / half-life / Cmax / Tmax / concentration at 0 h / concentration at 1 h / concentration at 2 h / concentration at 4 h: human, plasma, oral; for concentration at 8 h / concentration at 24 h / concentration at 0 h / concentration at 1 h / concentration at 2 h / concentration at 4 h: read-out: Mean patient plasma CONC (SD); for concentration at 24 h: 24 hr (not measured, inferred based on predose); for Cmax: read-out: Cmax Geo mean (% CV); for Tmax: read-out: Tmax Median (min, max)
From the text: The study is an open-label, multi-center study of oral BTK-I to evaluate safety and efficacy as monotherapy and as part of combination therapy in patients with CLL/SLL and NHL who have failed or are intolerant to standard of care. This study includes monotherapy as well as combination treatment parts. The monotherapy part includes Phase 1 dose escalation and dose expansion as well as Phase 2. The combination therapy part is a Phase 1b (safety assessment and expansion) of BTK-I in combination with venetoclax, with or without anti-CD20 therapy. Phase 1 dose escalation will proceed prior to start of Phase 1b or Phase 2. Once a recommended Phase 2 dose (RP2D) is identified in Phase 1, enrollment can commence to the Phase 1b combination therapies and Phase 2 monotherapy cohorts.
BTK-I is administered in oral tablet form. Dose escalation will follow a 3+3 design starting with a 25 mg QD dose (followed by 50 mg QD (dose level cohort 2), 100 mg QD (dose level cohort 3), 150 mg QD (dose level cohort 4), 200 mg QD (dose level cohort 5), 250 mg QD (dose level cohort 6), and 300 mg QD (dose level cohort 7)). Cycle length will be 28 days. The drug limiting toxicity (DLT) period will be 28 days, commencing with the first dose of BTK-I.
The pharmacokinetic profiles and adverse events for BTK-I doses are summarized in the below tables.
Pharmacokinetic Parameters of BTK-I—in Cancer Patients at Steady State (Cycle 1 Day 8)

TMD8 BTK WT cells = experiment: In vivo mouse xenograft study, TMD8 BTK WT; set-up: species or system mice; details: BTK-I BID alone; BTK WT driven TMD8 (DLBCL) xenograft
Procedure: (§1) In all studies, test articles are administered alone and in combination, following different dosing regimens.
(§2) Human TMD8 BTK WT, TMD8 BTK C481S or REC-1 cells are injected subcutaneously in the right flank of mice. When tumors reach a mean volume between 150 mm^3 and 400 mm^3, mice are randomized based on their tumor volumes. Mice are next dosed for 14 to 23 days depending on the study design. The potencies of the compounds stand-alone or in combination on the inhibition of the tumor growth are assessed based on the tumor volume changes and weights after collection at the end of the study. Additionally, in the TMD8 studies, the plasma concentrations of test articles are measured at multiple time points after the last dose.

TMD8 BTK C481S cells = experiment: In vivo mouse xenograft study, TMD8 BTK C481S; set-up: species or system mice; details: BTK-I BID alone; BTK C481S driven TMD8 (DLBCL) xenograft
Procedure: as §1, §2

[2] = 100 mg QD, steady state (Cycle 1 Day 8), N=9
[3] = 150 mg QD, steady state (Cycle 1 Day 8), N=20
[4] = 200 mg QD, steady state (Cycle 1 Day 8), N=99
[5] = 300 mg QD, steady state (Cycle 1 Day 8), N=17

With `COc1ccc(F)cc1C(=O)NCc1ccc(-c2nn([C@@H](C)C(F)(F)F)c(N)c2C(N)=O)cc1` [BTK-I, (S)-5-amino-3-(4-((5-fluoro-2-methoxybenzamido)methyl)phenyl)-1-(1,1,1-trifluoropropane-2-yl)-1H-pyrazole-4-carboxamide] the concentration at 8 h ([1]; 50 mg) was 1020 ng/mL, the concentration at 24 h ([1]; 50 mg) was 571 ng/mL and the half-life ([1]; 100 mg QD, steady state (Cycle 1 Day 8), N = 8, % CV 33.9%, read-out: T1/2 Geo mean (% CV) (converted)) was 22.2 h. For the same compound, the Cmax [1, 2] was 3910 ng/mL, the Tmax [1, 2] was 2 h and the concentration at 0 h ([1]; 100 mg) was 1580 ng/mL. For the same compound, the concentration at 1 h ([1]; 100 mg) was 2170 ng/mL, the concentration at 2 h ([1]; 100 mg) was 3670 ng/mL and the concentration at 4 h ([1]; 100 mg) was 2800 ng/mL. For the same compound, the concentration at 8 h ([1]; 100 mg) was 2360 ng/mL, the concentration at 24 h ([1]; 100 mg) was 1580 ng/mL and the Cmax [1, 3] was 4680 ng/mL. The Tmax [1, 3] was 2 h, the concentration at 0 h ([1]; 150 mg) was 1800 ng/mL and the concentration at 1 h ([1]; 150 mg) was 3670 ng/mL. For the same compound, the concentration at 2 h ([1]; 150 mg) was 4640 ng/mL, the concentration at 4 h ([1]; 150 mg) was 3660 ng/mL and the concentration at 8 h ([1]; 150 mg) was 3320 ng/mL. The concentration at 24 h ([1]; 150 mg) was 1800 ng/mL, the half-life ([1]; 200 mg QD, steady state (Cycle 1 Day 8), N = 64, % CV 56.2%, read-out: T1/2 Geo mean (% CV) (converted)) was 19.9 h and the Cmax [1, 4] was 5770 ng/mL. It also gave a Tmax [1, 4] of 2 h, a concentration at 0 h ([1]; 200 mg) of 2770 ng/mL and a concentration at 1 h ([1]; 200 mg) of 4940 ng/mL. It also gave a concentration at 2 h ([1]; 200 mg) of 6160 ng/mL, a concentration at 4 h ([1]; 200 mg) of 5270 ng/mL and a concentration at 8 h ([1]; 200 mg) of 4660 ng/mL. It also gave a concentration at 24 h ([1]; 200 mg) of 2770 ng/mL, a half-life ([1]; 250 mg QD, steady state (Cycle 1 Day 8), N = 21, % CV 50.6%, read-out: T1/2 Geo mean (% CV) (converted)) of 17.4 h and a Tmax ([1]; 250 mg QD, steady state (Cycle 1 Day 8), N=25) of 2 h. It also gave a concentration at 0 h ([1]; 250 mg) of 3160 ng/mL, a concentration at 1 h ([1]; 250 mg) of 6910 ng/mL and a concentration at 2 h ([1]; 250 mg) of 7870 ng/mL. The concentration at 4 h ([1]; 250 mg) was 6840 ng/mL, the concentration at 8 h ([1]; 250 mg) was 5500 ng/mL and the concentration at 24 h ([1]; 250 mg) was 3160 ng/mL. The half-life ([1]; 300 mg QD, steady state (Cycle 1 Day 8), N = 16, % CV 102%, read-out: T1/2 Geo mean (% CV) (converted)) was 30.1 h, the Cmax [1, 5] was 10700 ng/mL and the Tmax [1, 5] was 2 h. It also gave a concentration at 0 h ([1]; 300 mg) of 5510 ng/mL, a concentration at 1 h ([1]; 300 mg) of 9730 ng/mL and a concentration at 2 h ([1]; 300 mg) of 10700 ng/mL. It also gave a concentration at 4 h ([1]; 300 mg) of 8420 ng/mL, a concentration at 8 h ([1]; 300 mg) of 7510 ng/mL and a concentration at 24 h ([1]; 300 mg) of 5510 ng/mL. The half-life ([1]; patients, read-out: observed half-life (converted)) was roughly 20 h, the “target coverage for wild-type and C481S-mutated BTK” value ([1]; starting at the 50 mg QD dose, estimates from cell-based potencies) was “delivered >IC90 target coverage” and the “inhibition of xenograft tumor growth” value (TMD8 BTK WT cells) was “potently inhibited the growth”. The “inhibition of xenograft tumor growth” value (TMD8 BTK C481S cells) was “potently inhibited the growth”.

Reference: patent US12551463B2, “Dosing of a Bruton's tyrosine kinase inhibitor” (Loxo Oncology, Inc., priority 2019, dated 2026)
